Reference: ChEMBL document CHEMBL4513161, “CO-ADD screening of MMV (CH) - Pandemic Response Box” (2021)
Converted amounts (≈) assume the structure as drawn. Where a name gives a salt, the structure may show the parent alone.

Key:
[1] = system: Escherichia coli; assay: microbe, parasite or virus in culture; details: ATCC 25922, 18 h, ASSAY_TEST Inhibition of Bacterial Growth, detection method Absorption (OD600), MEDIA CAMHB, plate type 384well, NBS, CORNING #3640
Description: Antibacterial activity against Escherichia coli ATCC 25922 (CO-ADD:GN_001); MIC in CAMBH media using NBS plates, by OD(600)

[2] = system: Klebsiella pneumoniae; assay: microbe, parasite or virus in culture; details: ATCC 700603, 18 h, ASSAY_TEST Inhibition of Bacterial Growth, detection method Absorption (OD600), MEDIA CAMHB, plate type 384well, NBS, CORNING #3640
Description: Antibacterial activity against Klebsiella pneumoniae MDR ATCC 70063 (CO-ADD:GN_003); MIC in CAMBH media using NBS plates, by OD(600)

[3] = system: Cryptococcus neoformans
Description: Antifungal activity against Cryptococcus neoformans H99 ATCC 208821 (CO-ADD:FG_002); MIC in YNB media using NBS plates, by Resazurin OD(600-570)

[4] = system: Acinetobacter baumannii; assay: microbe, parasite or virus in culture; details: ATCC 19606, 18 h, ASSAY_TEST Inhibition of Bacterial Growth, detection method Absorption (OD600), MEDIA CAMHB, plate type 384well, NBS, CORNING #3640
Description: Antibacterial activity against Acinetobacter baumannii ATCC 19606 (CO-ADD:GN_034); MIC in CAMBH media using NBS plates, by OD600

[5] = system: Candida albicans; assay: microbe, parasite or virus in culture; details: ATCC 90028, ASSAY_TEST Inhibition of Fungal Growth, detection method Absorption (OD530), plate type 384well, NBS, CORNING #3640
Description: Antifungal activity against Candida albicans ATCC 90028 (CO-ADD:FG_001); MIC in YNB media using NBS plates, by OD630

[6] = system: Pseudomonas aeruginosa; assay: microbe, parasite or virus in culture; details: ATCC 27853, 18 h, ASSAY_TEST Inhibition of Bacterial Growth, detection method Absorption (OD600), MEDIA CAMHB, plate type 384well, NBS, CORNING #3640
Description: Antibacterial activity against Pseudomonas aeruginosa ATCC 27853 (CO-ADD:GN_042); MIC in CAMBH media using NBS plates, by OD(600)

[7] = system: HEK293; assay: cells; format: functional, Homo sapiens, ATCC CRL1573; details: Homo sapiens, ATCC CRL1573, HEK293; ASSAY_TEST Inhibition of Cell Viability; detection method Resazurin; Fluorescence (ex560/em590); MEDIA DMEM with 10% FBS; plate type 384well; TC; CORNING #3712; time 18 hr; read-out: CC50
[8] = system: Staphylococcus aureus; assay: microbe, parasite or virus in culture; details: ATCC 43300, 18 h, ASSAY_TEST Inhibition of Bacterial Growth, detection method Absorption (OD600), MEDIA CAMHB, plate type 384well, NBS, CORNING #3640
Description: Antibacterial activity against Staphylococcus aureus MRSA ATCC 43300 (CO-ADD:GP_020); MIC in CAMBH media, using NBS plates, by OD(600)

[9] = system: Pseudomonas aeruginosa; assay: Antibacterial activity against Pseudomonas aeruginosa PAO397 [PAO1 d(mexAB-oprM) d(mexCD-oprJ) d(mexEF-oprN) d(mexJKL) d(mexXY) d(opmH)] (CO-ADD:GN_211); MIC in CAMBH media using NBS plates, by OD(600); format: functional; details: ASSAY_TEST Inhibition of Bacterial Growth, detection method Absorption (OD600), MEDIA CAMHB, plate type 384well, CORNING #3640, time 18 hr

SMILES	MIC [1] [µM]	MIC [2] [µM]	MIC [3] [µM]	MIC [4] [µM]	MIC [5] [µM]	MIC [6] [µM]	CC50 [7] [µM]	MIC [8] [µM]	MIC [9] [µM]
CONC(=N)c1ccc(-c2ccc(-c3ccc(C(=N)NOC)cc3)o2)cc1 [PAFURAMIDINE]	> 20	> 20	> 20	> 20	> 20	> 20	> 20	> 20	> 20
CCC[C@H](NC(=O)[C@@H]1[C@H]2CCC[C@H]2CN1C(=O)[C@@H](NC(=O)[C@@H](NC(=O)c1cnccn1)C1CCCCC1)C(C)(C)C)C(=O)C(=O)NC1CC1	> 20	> 20	> 20	> 20	> 20	> 20	> 20	> 20	> 20
Nc1nc(Nc2ccc3nc(-c4ccc(F)cc4)cc(N)c3c2)cc(-c2ccccc2)n1	> 20	> 20	≤ 0.156	> 20	0.625 (≈ 0.264 µg/mL)	> 20	0.751	10 (≈ 4.22 µg/mL)	> 20
Cc1ccc(NC(=O)c2cc(Cl)ccc2O)cc1	> 20	> 20	> 20	> 20	> 20	> 20	3.91	> 20	> 20
C[C@@]1(O)[C@H](O)[C@@H](CO)O[C@H]1n1ccc2c(N)ncnc21 [BETA-2'-C-METHYL-7-DEAZA-ADENOSINE]	> 20	> 20	> 20	> 20	> 20	> 20	> 20	> 20	> 20
Nc1nc(NC2Cc3ccc(F)cc3C2)nc(N2CCCCC2)n1 (configuration not stated)	> 20	> 20	> 20	> 20	> 20	> 20	> 20	> 20	> 20
CC(N)C12CC3CC(CC(C3)C1)C2 (configuration not stated) [RIMANTADINE HYDROCHLORIDE]	> 20	> 20	> 20	> 20	> 20	> 20	> 20	> 20	> 20
Oc1ccc2[nH]c(-c3ccccc3)nc2c1	> 20	> 20	> 20	> 20	> 20	> 20	> 20	> 20	> 20
CN1CCN(Cc2ccc(-c3cnc4[nH]cc(-c5ccc6[nH]ccc6c5)c4c3)cc2)CC1	> 20	> 20	> 20	> 20	> 20	> 20	5.33	> 20	> 20
CN(C)CC(=O)Nc1ccc2[nH]c(=O)c3ccccc3c2c1 [PJ34]	> 20	> 20	> 20	> 20	> 20	> 20	> 20	> 20	> 20
CCc1cc(Nc2cc(=O)n(CCN3CCN(C(=O)c4ccccc4)CC3)c(=O)[nH]2)ccc1C	> 20	> 20	> 20	> 20	> 20	> 20	> 20	> 20	> 20
O=C(NCc1ccccc1Cl)c1cnc2ccccc2n1	> 20	> 20	> 20	> 20	> 20	> 20	> 20	> 20	> 20
CC[N+]1(C/C2=C/CCCCCC2)CCC(NC(=O)C2c3cc(Cl)ccc3Oc3ccc(Cl)cc32)CC1 (configuration not stated)	> 20	> 20	> 20	> 20	> 20	> 20	> 20	20	> 20
